Data taken from PubChem BioAssay AID2060343 (Molecular Pharmacology Branch, DTP, NCI, 2025).

System: 138582-337-R-J1-PDC spheroids with HUVEC/MSC, viability
Experiment: Anticancer human tumor 138582-337-R-J1-PDC patient-derived Merkel cell tumor cell line growth inhibition [IpAb]
Conditions: for IC50: curve of first compound; for viability, T/C: stronger effect = lower value
Summary of the method: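 Multi-cell spheroids of 60% tumour cells, 25% HUVEC and 15% MSC in ultra-low-attachment U-bottom wells, treated with agents combined with ipatasertib or abemaciclib. Half-log ranges top out near clinical Cmax, or 10 microM when Cmax is unknown.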

[1] = second compound 0.01 µM, first compound 0.0316 µM
[2] = second compound 0.01 µM, first compound 0.1 µM
[3] = second compound 0.01 µM, first compound 0.316 µM
[4] = second compound 0.01 µM, first compound 1 µM
[5] = second compound 0.01 µM, first compound 3.16 µM
[6] = second compound 0.01 µM, first compound 10 µM
[7] = second compound 0.0316 µM, first compound 0.0316 µM
[8] = second compound 0.0316 µM, first compound 0.1 µM
[9] = second compound 0.0316 µM, first compound 0.316 µM
[10] = second compound 0.0316 µM, first compound 1 µM
[11] = second compound 0.0316 µM, first compound 3.16 µM
[12] = second compound 0.0316 µM, first compound 10 µM
[13] = second compound 0.1 µM, first compound 0.0316 µM
[14] = second compound 0.1 µM, first compound 0.1 µM
[15] = second compound 0.1 µM, first compound 0.316 µM
[16] = second compound 0.1 µM, first compound 1 µM
[17] = second compound 0.1 µM, first compound 3.16 µM
[18] = second compound 0.1 µM, first compound 10 µM
[19] = second compound 0.316 µM, first compound 0.0316 µM
[20] = second compound 0.316 µM, first compound 0.1 µM
[21] = second compound 0.316 µM, first compound 0.316 µM
[22] = second compound 0.316 µM, first compound 1 µM
[23] = second compound 0.316 µM, first compound 3.16 µM
[24] = second compound 0.316 µM, first compound 10 µM
[25] = second compound 1 µM, first compound 0.0316 µM
[26] = second compound 1 µM, first compound 0.1 µM
[27] = second compound 1 µM, first compound 0.316 µM
[28] = second compound 1 µM, first compound 1 µM
[29] = second compound 1 µM, first compound 3.16 µM
[30] = second compound 1 µM, first compound 10 µM
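Further: spheroids exposed to compounds for seven days.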
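Wherever viability, T/C is given: 100% = DMSO vehicle control viability.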

## C=CCn1c(=O)c2cnc(Nc3ccc(N4CCN(C)CC4)cc3)nc2n1-c1cccc(C(C)(C)O)n1 + CCN1CCN(Cc2ccc(Nc3ncc(F)c(-c4cc(F)c5nc(C)n(C(C)C)c5c4)n3)nc2)CC1
Second compound 0.01 µM
  IC50: > 10 µM
Second compound 0.0316 µM
  IC50: > 10 µM
Second compound 0.1 µM
  IC50: > 10 µM
Second compound 0.316 µM
  IC50: > 10 µM
Second compound 1 µM
  IC50: > 10 µM
[1]
  viability, T/C: 105%
[2]
  viability, T/C: 95.3%
[3]
  viability, T/C: 100%
[4]
  viability, T/C: 90.4%
[5]
  viability, T/C: 117%
[6]
  viability, T/C: 141%
[7]
  viability, T/C: 106%
[8]
  viability, T/C: 99.5%
[9]
  viability, T/C: 90.9%
[10]
  viability, T/C: 99.1%
[11]
  viability, T/C: 101%
[12]
  viability, T/C: 133%
[13]
  viability, T/C: 91.4%
[14]
  viability, T/C: 98.7%
[15]
  viability, T/C: 91.7%
[16]
  viability, T/C: 90.3%
[17]
  viability, T/C: 116%
[18]
  viability, T/C: 141%
[19]
  viability, T/C: 86.4%
[20]
  viability, T/C: 96.2%
[21]
  viability, T/C: 87.6%
[22]
  viability, T/C: 94.1%
[23]
  viability, T/C: 116%
[24]
  viability, T/C: 144%
[25]
  viability, T/C: 102%
[26]
  viability, T/C: 109%
[27]
  viability, T/C: 101%
[28]
  viability, T/C: 105%
[29]
  viability, T/C: 114%
[30]
  viability, T/C: 134%

## CC(C)n1nc(-c2ccc3oc(N)nc3c2)c2c(N)ncnc21 + CCN1CCN(Cc2ccc(Nc3ncc(F)c(-c4cc(F)c5nc(C)n(C(C)C)c5c4)n3)nc2)CC1
Second compound 0.01 µM
  IC50: 0.0598 µM
Second compound 0.0316 µM
  IC50: 0.0269 µM
Second compound 0.1 µM
  IC50: 0.0529 µM
Second compound 0.316 µM
  IC50: > 0.1 µM
Second compound 1 µM
  IC50: 0.0694 µM
Second compound 0.01 µM, first compound 0.000316 µM
  viability, T/C: 102%
Second compound 0.01 µM, first compound 0.001 µM
  viability, T/C: 88%
Second compound 0.01 µM, first compound 0.00316 µM
  viability, T/C: 73.4%
Second compound 0.01 µM, first compound 0.01 µM
  viability, T/C: 76.5%
[1]
  viability, T/C: 58.2%
[2]
  viability, T/C: 42.2%
Second compound 0.0316 µM, first compound 0.000316 µM
  viability, T/C: 88%
Second compound 0.0316 µM, first compound 0.001 µM
  viability, T/C: 74.5%
Second compound 0.0316 µM, first compound 0.00316 µM
  viability, T/C: 90.8%
Second compound 0.0316 µM, first compound 0.01 µM
  viability, T/C: 71%
[7]
  viability, T/C: 47.5%
[8]
  viability, T/C: 38.7%
Second compound 0.1 µM, first compound 0.000316 µM
  viability, T/C: 93.6%
Second compound 0.1 µM, first compound 0.001 µM
  viability, T/C: 88.4%
Second compound 0.1 µM, first compound 0.00316 µM
  viability, T/C: 78.8%
Second compound 0.1 µM, first compound 0.01 µM
  viability, T/C: 68.1%
[13]
  viability, T/C: 55.1%
[14]
  viability, T/C: 43.6%
Second compound 0.316 µM, first compound 0.000316 µM
  viability, T/C: 96.5%
Second compound 0.316 µM, first compound 0.001 µM
  viability, T/C: 96.6%
Second compound 0.316 µM, first compound 0.00316 µM
  viability, T/C: 80%
Second compound 0.316 µM, first compound 0.01 µM
  viability, T/C: 56.5%
[19]
  viability, T/C: 53.2%
[20]
  viability, T/C: 50.2%
Second compound 1 µM, first compound 0.000316 µM
  viability, T/C: 88.8%
Second compound 1 µM, first compound 0.001 µM
  viability, T/C: 93.5%
Second compound 1 µM, first compound 0.00316 µM
  viability, T/C: 82.6%
Second compound 1 µM, first compound 0.01 µM
  viability, T/C: 61.3%
[25]
  viability, T/C: 52.1%
[26]
  viability, T/C: 48.6%

## CC1(C)CCC(CN2CCN(c3ccc(C(=O)NS(=O)(=O)c4ccc(NCC5CCOCC5)c([N+](=O)[O-])c4)c(Oc4cnc5[nH]ccc5c4)c3)CC2)=C(c2ccc(Cl)cc2)C1 + CCN1CCN(Cc2ccc(Nc3ncc(F)c(-c4cc(F)c5nc(C)n(C(C)C)c5c4)n3)nc2)CC1
Second compound 0.01 µM
  IC50: > 10 µM
Second compound 0.0316 µM
  IC50: > 10 µM
Second compound 0.1 µM
  IC50: > 10 µM
Second compound 0.316 µM
  IC50: > 10 µM
Second compound 1 µM
  IC50: > 10 µM
[1]
  viability, T/C: 90.6%
[2]
  viability, T/C: 83.3%
[3]
  viability, T/C: 79.3%
[4]
  viability, T/C: 83.7%
[5]
  viability, T/C: 75.1%
[6]
  viability, T/C: 83.2%
[7]
  viability, T/C: 93.3%
[8]
  viability, T/C: 86.7%
[9]
  viability, T/C: 86.4%
[10]
  viability, T/C: 78.5%
[11]
  viability, T/C: 83.3%
[12]
  viability, T/C: 82.9%
[13]
  viability, T/C: 86.5%
[14]
  viability, T/C: 79%
[15]
  viability, T/C: 85%
[16]
  viability, T/C: 80%
[17]
  viability, T/C: 86.4%
[18]
  viability, T/C: 89.5%
[19]
  viability, T/C: 85%
[20]
  viability, T/C: 90.7%
[21]
  viability, T/C: 81.7%
[22]
  viability, T/C: 86.8%
[23]
  viability, T/C: 90.8%
[24]
  viability, T/C: 106%
[25]
  viability, T/C: 88.4%
[26]
  viability, T/C: 86.3%
[27]
  viability, T/C: 75.1%
[28]
  viability, T/C: 81%
[29]
  viability, T/C: 83.7%
[30]
  viability, T/C: 109%

## CCCS(=O)(=O)Nc1ccc(F)c(C(=O)c2c[nH]c3ncc(-c4ccc(Cl)cc4)cc23)c1F + CCN1CCN(Cc2ccc(Nc3ncc(F)c(-c4cc(F)c5nc(C)n(C(C)C)c5c4)n3)nc2)CC1
Second compound 0.01 µM
  IC50: > 10 µM
Second compound 0.0316 µM
  IC50: > 10 µM
Second compound 0.1 µM
  IC50: 7.49 µM
Second compound 0.316 µM
  IC50: > 10 µM
Second compound 1 µM
  IC50: > 10 µM
[1]
  viability, T/C: 99.8%
[2]
  viability, T/C: 103%
[3]
  viability, T/C: 95.9%
[4]
  viability, T/C: 98.8%
[5]
  viability, T/C: 112%
[6]
  viability, T/C: 81.9%
[7]
  viability, T/C: 97.9%
[8]
  viability, T/C: 96.8%
[9]
  viability, T/C: 96.8%
[10]
  viability, T/C: 97.2%
[11]
  viability, T/C: 97.8%
[12]
  viability, T/C: 74.8%
[13]
  viability, T/C: 93.2%
[14]
  viability, T/C: 87%
[15]
  viability, T/C: 93.5%
[16]
  viability, T/C: 101%
[17]
  viability, T/C: 93.7%
[18]
  viability, T/C: 35.4%
[19]
  viability, T/C: 105%
[20]
  viability, T/C: 95%
[21]
  viability, T/C: 106%
[22]
  viability, T/C: 90.6%
[23]
  viability, T/C: 103%
[24]
  viability, T/C: 78.2%
[25]
  viability, T/C: 99.4%
[26]
  viability, T/C: 93.8%
[27]
  viability, T/C: 89.1%
[28]
  viability, T/C: 86.3%
[29]
  viability, T/C: 94.1%
[30]
  viability, T/C: 61.1%

## Cn1cnc2c(F)c(Nc3ccc(Br)cc3Cl)c(C(=O)NOCCO)cc21 + CCN1CCN(Cc2ccc(Nc3ncc(F)c(-c4cc(F)c5nc(C)n(C(C)C)c5c4)n3)nc2)CC1
Second compound 0.01 µM
  IC50: > 3 µM
Second compound 0.0316 µM
  IC50: > 3 µM
Second compound 0.1 µM
  IC50: > 3 µM
Second compound 0.316 µM
  IC50: > 3 µM
Second compound 1 µM
  IC50: 1.88 µM
Second compound 0.01 µM, first compound 0.00949 µM
  viability, T/C: 102%
Second compound 0.01 µM, first compound 0.03 µM
  viability, T/C: 94.5%
Second compound 0.01 µM, first compound 0.0949 µM
  viability, T/C: 75.3%
Second compound 0.01 µM, first compound 0.3 µM
  viability, T/C: 81.2%
Second compound 0.01 µM, first compound 0.949 µM
  viability, T/C: 94%
Second compound 0.01 µM, first compound 3 µM
  viability, T/C: 93.1%
Second compound 0.0316 µM, first compound 0.00949 µM
  viability, T/C: 94.8%
Second compound 0.0316 µM, first compound 0.03 µM
  viability, T/C: 91%
Second compound 0.0316 µM, first compound 0.0949 µM
  viability, T/C: 67.1%
Second compound 0.0316 µM, first compound 0.3 µM
  viability, T/C: 79.6%
Second compound 0.0316 µM, first compound 0.949 µM
  viability, T/C: 86.8%
Second compound 0.0316 µM, first compound 3 µM
  viability, T/C: 88.3%
Second compound 0.1 µM, first compound 0.00949 µM
  viability, T/C: 102%
Second compound 0.1 µM, first compound 0.03 µM
  viability, T/C: 88.2%
Second compound 0.1 µM, first compound 0.0949 µM
  viability, T/C: 78.3%
Second compound 0.1 µM, first compound 0.3 µM
  viability, T/C: 68.7%
Second compound 0.1 µM, first compound 0.949 µM
  viability, T/C: 76.9%
Second compound 0.1 µM, first compound 3 µM
  viability, T/C: 73.1%
Second compound 0.316 µM, first compound 0.00949 µM
  viability, T/C: 88.8%
Second compound 0.316 µM, first compound 0.03 µM
  viability, T/C: 90.8%
Second compound 0.316 µM, first compound 0.0949 µM
  viability, T/C: 83%
Second compound 0.316 µM, first compound 0.3 µM
  viability, T/C: 66%
Second compound 0.316 µM, first compound 0.949 µM
  viability, T/C: 72.9%
Second compound 0.316 µM, first compound 3 µM
  viability, T/C: 56.3%
Second compound 1 µM, first compound 0.00949 µM
  viability, T/C: 96.1%
Second compound 1 µM, first compound 0.03 µM
  viability, T/C: 90.2%
Second compound 1 µM, first compound 0.0949 µM
  viability, T/C: 78%
Second compound 1 µM, first compound 0.3 µM
  viability, T/C: 74.5%
Second compound 1 µM, first compound 0.949 µM
  viability, T/C: 73.1%
Second compound 1 µM, first compound 3 µM
  viability, T/C: 37.1%
